molecular target: T1, human PAH with the R408W mutation (Homo sapiens, UniProt P00439, R408W); test: Cell Based Phenylalanine Flux Assay; conditions: A375 cells expressing human R408W PAH; 24 hrs compound incubation; 13C-Tyrosine by LC-MS; average where tested multiple times; read-out: AC50;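 further: after compound treatment, cells received sepiapterin plus isotope-labelled Phenylalanine for 4 hours, then labelled Tyrosine in the medium was quantified, 10-point 2-fold dilution series run in duplicate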
T1 construct: expressed in transfected cells
T1 sequence (P00439 1-452 R408W): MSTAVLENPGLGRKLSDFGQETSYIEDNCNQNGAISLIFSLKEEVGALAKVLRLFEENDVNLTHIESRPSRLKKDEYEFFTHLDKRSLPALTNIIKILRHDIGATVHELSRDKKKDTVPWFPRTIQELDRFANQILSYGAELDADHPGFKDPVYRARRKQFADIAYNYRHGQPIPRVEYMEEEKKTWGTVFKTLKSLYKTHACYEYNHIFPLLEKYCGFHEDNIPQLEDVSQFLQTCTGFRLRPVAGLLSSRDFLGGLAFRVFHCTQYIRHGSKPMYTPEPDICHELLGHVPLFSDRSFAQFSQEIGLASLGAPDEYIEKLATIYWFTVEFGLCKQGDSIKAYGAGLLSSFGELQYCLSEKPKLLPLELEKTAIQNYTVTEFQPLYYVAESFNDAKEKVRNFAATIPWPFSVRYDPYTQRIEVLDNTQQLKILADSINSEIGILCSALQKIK

`Cc1cccc(-c2nnc(C(=O)N3CCc4[nH]cnc4[C@H]3c3cc4c(F)cccn4n3)o2)n1` [Example 1470, (S)-(4-(4-fluoropyrazolo[1,5-a]pyridin-2-yl)-6,7-dihydro-1H-imidazo[4,5-c]pyridin-5(4H)-yl)(5-(6-methylpyridin-2-yl)-1,3,4-oxadiazol-2-yl)methanone] and `Cc1cccc(-c2nnc(C(=O)N3CCc4[nH]cnc4[C@H]3c3cc4cccc(F)n4n3)o2)n1` [Example 1496, (S)-(4-(7-fluoropyrazolo[1,5-a]pyridin-2-yl)-6,7-dihydro-1H-imidazo[4,5-c]pyridin-5(4H)-yl)(5-(6-methylpyridin-2-yl)-1,3,4-oxadiazol-2-yl)methanone] cannot be ordered by AC50: under 500 nM for the first, under 500 nM for the second.

Compared with `Cc1cccn2nc([C@@H]3c4nc[nH]c4CCN3C(=O)c3nnc(-c4cnn(C(F)(F)F)c4)o3)cc12` [Example 1472, (S)-(4-(4-methylpyrazolo[1,5-a]pyridin-2-yl)-6,7-dihydro-1H-imidazo[4,5-c]pyridin-5(4H)-yl)(5-(1-(trifluoromethyl)-1H-pyrazol-4-yl)-1,3,4-oxadiazol-2-yl)methanone], `Cc1cccn2nc([C@H]3c4nc[nH]c4CCN3C(=O)c3nnc(-c4cnn(C(F)(F)F)c4)o3)cc12` [Example 1473, (R)-(4-(4-methylpyrazolo[1,5-a]pyridin-2-yl)-6,7-dihydro-1H-imidazo[4,5-c]pyridin-5(4H)-yl)(5-(1-(trifluoromethyl)-1H-pyrazol-4-yl)-1,3,4-oxadiazol-2-yl)methanone] is higher in AC50: 500 to 1000 nM for the first, 1000 to 5000 nM for the second.

First: O=C(c1nnc(-c2ccn(C(F)(F)F)n2)o1)N1CCc2[nH]cnc2[C@@H]1c1cc2cccc(F)n2n1 [Example 1475, (R)-(4-(7-fluoropyrazolo[1,5-a]pyridin-2-yl)-6,7-dihydro-1H-imidazo[4,5-c]pyridin-5(4H)-yl)(5-(1-(trifluoromethyl)-1H-pyrazol-3-yl)-1,3,4-oxadiazol-2-yl)methanone]
Second: O=C(c1nnc(-c2ccn(C(F)(F)F)n2)o1)N1CCc2[nH]cnc2[C@H]1c1cc2ccccn2n1 [Example 1506, (S)-(4-(pyrazolo[1,5-a]pyridin-2-yl)-6,7-dihydro-1H-imidazo[4,5-c]pyridin-5(4H)-yl)(5-(1-(trifluoromethyl)-1H-pyrazol-3-yl)-1,3,4-oxadiazol-2-yl)methanone]
The AC50 of the first is higher: 1000 to 5000 nM for the first, under 500 nM for the second.

First: O=C(c1nnc(-c2ccn(C(F)(F)F)n2)o1)N1CCc2[nH]cnc2[C@@H]1c1cc2c(Cl)cccn2n1 [Example 1477, (R)-(4-(4-chloropyrazolo[1,5-a]pyridin-2-yl)-6,7-dihydro-1H-imidazo[4,5-c]pyridin-5(4H)-yl)(5-(1-(trifluoromethyl)-1H-pyrazol-3-yl)-1,3,4-oxadiazol-2-yl)methanone]
Second: Cc1cccn2nc([C@@H]3c4nc[nH]c4CCN3C(=O)c3nnc(-c4ccn(C(F)(F)F)n4)o3)cc12 [Example 1478, (S)-(4-(4-methylpyrazolo[1,5-a]pyridin-2-yl)-6,7-dihydro-1H-imidazo[4,5-c]pyridin-5(4H)-yl)(5-(1-(trifluoromethyl)-1H-pyrazol-3-yl)-1,3,4-oxadiazol-2-yl)methanone]
The AC50 of the first is higher: 1000 to 5000 nM for the first, under 500 nM for the second.

Compared with `O=C(c1nnc(-c2ccn(C(F)(F)F)n2)o1)N1CCc2[nH]cnc2[C@H]1c1cc2c(C(F)F)cccn2n1` [Example 1480, (S)-(4-(4-(difluoromethyl)pyrazolo[1,5-a]pyridin-2-yl)-6,7-dihydro-1H-imidazo[4,5-c]pyridin-5(4H)-yl)(5-(1-(trifluoromethyl)-1H-pyrazol-3-yl)-1,3,4-oxadiazol-2-yl)methanone], `O=C(c1nnc(-c2ccn(C(F)(F)F)n2)o1)N1CCc2[nH]cnc2[C@@H]1c1cc2c(C(F)F)cccn2n1` [Example 1481, (R)-(4-(4-(difluoromethyl)pyrazolo[1,5-a]pyridin-2-yl)-6,7-dihydro-1H-imidazo[4,5-c]pyridin-5(4H)-yl)(5-(1-(trifluoromethyl)-1H-pyrazol-3-yl)-1,3,4-oxadiazol-2-yl)methanone] is higher in AC50: under 500 nM for the first, 1000 to 5000 nM for the second.

Compared with `CC(C)c1nnc(C(=O)N2CCc3[nH]cnc3[C@@H]2c2cc3c(Cl)cccn3n2)o1` [Example 1485, (R)-(4-(4-chloropyrazolo[1,5-a]pyridin-2-yl)-6,7-dihydro-1H-imidazo[4,5-c]pyridin-5(4H)-yl)(5-isopropyl-1,3,4-oxadiazol-2-yl)methanone], `CC(C)c1nnc(C(=O)N2CCc3[nH]cnc3[C@H]2c2cc3c(C(F)(F)F)cccn3n2)o1` [Example 1486, (S)-(5-isopropyl-1,3,4-oxadiazol-2-yl)(4-(4-(trifluoromethyl)pyrazolo[1,5-a]pyridin-2-yl)-6,7-dihydro-1H-imidazo[4,5-c]pyridin-5(4H)-yl)methanone] is lower in AC50: 1000 to 5000 nM for the first, under 500 nM for the second.

First: CC(C)c1nnc(C(=O)N2CCc3[nH]cnc3[C@@H]2c2cc3c(C(F)(F)F)cccn3n2)o1 [Example 1487, (R)-(5-isopropyl-1,3,4-oxadiazol-2-yl)(4-(4-(trifluoromethyl)pyrazolo[1,5-a]pyridin-2-yl)-6,7-dihydro-1H-imidazo[4,5-c]pyridin-5(4H)-yl)methanone]
Second: CC(C)c1nnc(C(=O)N2CCc3[nH]cnc3[C@H]2c2cc3cccc(C(F)F)n3n2)o1 [Example 1492, (S)-(4-(7-(difluoromethyl)pyrazolo[1,5-a]pyridin-2-yl)-6,7-dihydro-1H-imidazo[4,5-c]pyridin-5(4H)-yl)(5-isopropyl-1,3,4-oxadiazol-2-yl)methanone]
The AC50 of the first is higher: over 5000 nM for the first, 500 to 1000 nM for the second.

Compared with `CC(C)c1nnc(C(=O)N2CCc3[nH]cnc3[C@H]2c2cc3cccc(Cl)n3n2)o1` [Example 1488, (S)-(4-(7-chloropyrazolo[1,5-a]pyridin-2-yl)-6,7-dihydro-1H-imidazo[4,5-c]pyridin-5(4H)-yl)(5-isopropyl-1,3,4-oxadiazol-2-yl)methanone], `Cc1cccc2cc([C@H]3c4nc[nH]c4CCN3C(=O)c3nnc(C(C)C)o3)nn12` [Example 1491, (R)-(5-isopropyl-1,3,4-oxadiazol-2-yl)(4-(7-methylpyrazolo[1,5-a]pyridin-2-yl)-6,7-dihydro-1H-imidazo[4,5-c]pyridin-5(4H)-yl)methanone] is higher in AC50: under 500 nM for the first, 1000 to 5000 nM for the second.

First: CC(C)c1nnc(C(=O)N2CCc3[nH]cnc3[C@@H]2c2cc3cccc(C(F)F)n3n2)o1 [Example 1493, (R)-(4-(7-(difluoromethyl)pyrazolo[1,5-a]pyridin-2-yl)-6,7-dihydro-1H-imidazo[4,5-c]pyridin-5(4H)-yl)(5-isopropyl-1,3,4-oxadiazol-2-yl)methanone]
Second: Cc1ncccc1-c1nnc(C(=O)N2CCc3[nH]cnc3[C@H]2c2cc3cccc(C(F)F)n3n2)o1 [Example 1500, (S)-(4-(7-(difluoromethyl)pyrazolo[1,5-a]pyridin-2-yl)-6,7-dihydro-1H-imidazo[4,5-c]pyridin-5(4H)-yl)(5-(2-methylpyridin-3-yl)-1,3,4-oxadiazol-2-yl)methanone]
The AC50 of the first is higher: 1000 to 5000 nM for the first, under 500 nM for the second.

First: Cc1ncccc1-c1nnc(C(=O)N2CCc3[nH]cnc3[C@H]2c2cc3cccc(F)n3n2)o1 [Example 1494, (S)-(4-(7-fluoropyrazolo[1,5-a]pyridin-2-yl)-6,7-dihydro-1H-imidazo[4,5-c]pyridin-5(4H)-yl)(5-(2-methylpyridin-3-yl)-1,3,4-oxadiazol-2-yl)methanone]
Second: Cc1ncccc1-c1nnc(C(=O)N2CCc3[nH]cnc3[C@@H]2c2cc3cccc(F)n3n2)o1 [Example 1495, (R)-(4-(7-fluoropyrazolo[1,5-a]pyridin-2-yl)-6,7-dihydro-1H-imidazo[4,5-c]pyridin-5(4H)-yl)(5-(2-methylpyridin-3-yl)-1,3,4-oxadiazol-2-yl)methanone]
The AC50 of the first is lower: under 500 nM for the first, over 5000 nM for the second.

First: Cc1cccc(-c2nnc(C(=O)N3CCc4[nH]cnc4[C@@H]3c3cc4cccc(F)n4n3)o2)n1 [Example 1497, (R)-(4-(7-fluoropyrazolo[1,5-a]pyridin-2-yl)-6,7-dihydro-1H-imidazo[4,5-c]pyridin-5(4H)-yl)(5-(6-methylpyridin-2-yl)-1,3,4-oxadiazol-2-yl)methanone]
Second: Cc1ncccc1-c1nnc(C(=O)N2CCc3[nH]cnc3[C@@H]2c2cc3cccc(C(F)F)n3n2)o1 [Example 1501, (R)-(4-(7-(difluoromethyl)pyrazolo[1,5-a]pyridin-2-yl)-6,7-dihydro-1H-imidazo[4,5-c]pyridin-5(4H)-yl)(5-(2-methylpyridin-3-yl)-1,3,4-oxadiazol-2-yl)methanone]
The AC50 of the first is lower: 1000 to 5000 nM for the first, over 5000 nM for the second.

Compared with `O=C(c1nnc(-c2ncccn2)o1)N1CCc2[nH]cnc2[C@H]1c1cc2cccc(C(F)F)n2n1` [Example 1499, (S)-(4-(7-(difluoromethyl)pyrazolo[1,5-a]pyridin-2-yl)-6,7-dihydro-1H-imidazo[4,5-c]pyridin-5(4H)-yl)(5-(pyrimidin-2-yl)-1,3,4-oxadiazol-2-yl)methanone], `O=C(c1nnc(-c2cnn(C(F)(F)F)c2)o1)N1CCc2[nH]cnc2[C@@H]1c1cc2cccc(C(F)F)n2n1` [Example 1503, (R)-(4-(7-(difluoromethyl)pyrazolo[1,5-a]pyridin-2-yl)-6,7-dihydro-1H-imidazo-[4,5-c]pyridin-5(4H)-yl)(5-(1-(trifluoromethyl)-1H-pyrazol-4-yl)-1,3,4-oxadiazol-2-yl)methanone] is higher in AC50: 500 to 1000 nM for the first, over 5000 nM for the second.

For `O=C(c1nnc(-c2cnn(C(F)(F)F)c2)o1)N1CCc2[nH]cnc2[C@H]1c1cc2c(Cl)cccn2n1` [Example 1504, (S)-(4-(4-chloropyrazolo[1,5-a]pyridin-2-yl)-6,7-dihydro-1H-imidazo[4,5-c]pyridin-5(4H)-yl)(5-(1-(trifluoromethyl)-1H-pyrazol-4-yl)-1,3,4-oxadiazol-2-yl)methanone], the AC50 was under 500 nM.
